# In US9988379B2, “GPR40 receptor agonist, methods of preparing the same, and pharmaceutical compositions containing the same as an active agent” (LG CHEM, LTD., priority 2012, dated 2018):
# Target: T1, human GPR40 (Homo sapiens, UniProt O14842)
# T1 construct: expressed in transfected cells; host or cells: CHO-K1
# Assay: Induction of Ca2+ (calcium flux assay) using human GPR40 expression cell line
# Format: cell-based
# Settings: read-out: EC0.5
# Summary of the method: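 CHO-K1 cells stably transfected with human GPR40, plated 24 h, loaded 1 h at 37° C with Calcium 5 dye in HBSS/HEPES pH 7.4. Intracellular calcium change after compound addition read on FlexStation; concentration–response of relative activity used to derive EC0.5.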
# T1 sequence (O14842 whole entry): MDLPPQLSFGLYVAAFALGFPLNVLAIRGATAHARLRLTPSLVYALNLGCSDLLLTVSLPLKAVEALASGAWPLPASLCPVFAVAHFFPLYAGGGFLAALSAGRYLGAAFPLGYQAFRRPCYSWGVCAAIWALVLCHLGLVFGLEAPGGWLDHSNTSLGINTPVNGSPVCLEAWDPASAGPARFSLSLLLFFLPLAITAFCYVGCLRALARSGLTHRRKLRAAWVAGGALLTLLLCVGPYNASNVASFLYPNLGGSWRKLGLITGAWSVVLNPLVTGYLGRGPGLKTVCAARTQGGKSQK
row,EC50,Compound
1,0.005 µM,"CC#C[C@@H](CC(=O)O)c1ccc(OCc2ccc3c(CN4CCCC(F)(F)C4)nn(CC(C)C)c3c2C)cc1 [Example 227, (S)-3-{4-[3-(3,3-difluoro-piperidin-1-ylmethyl)-1-isobutyl-7-methyl-1H-indazol-6-ylmethoxy]-phenyl}-hex-4-ynoic acid]"
2,0.001 to 0.05 µM,"CC#C[C@@H](CC(=O)O)c1ccc(OCc2ccc3c(Cn4cccn4)nn(CC(C)C)c3c2C)cc1 [Example 228, (S)-3-[4-(1-isobutyl-7-methyl-3-pyrazol-1-ylmethyl-1H-indazol-6-ylmethoxy)-phenyl]-hex-4-ynoic acid]"
3,0.035 µM,"CC#C[C@@H](CC(=O)O)c1ccc(OCc2ccc3c(CN4CC[C@H](F)C4)nn(CC(C)C)c3c2C)cc1 [Example 229, (S)-3-{4-[3-((S)-3-fluoro-pyrrolidin-1-ylmethyl)-1-isobutyl-7-methyl-1H-indazol-6-ylmethoxy]-phenyl}-hex-4-ynoic acid]"
4,0.001 to 0.05 µM,"CC#C[C@@H](CC(=O)O)c1ccc(OCc2ccc3c(CN4CCC(F)(F)C4)nn(CC(C)C)c3c2C)cc1 [Example 230, (S)-3-{4-[3-(3,3-difluoro-pyrrolidin-1-ylmethyl)-1-isobutyl-7-methyl-1H-indazol-6-ylmethoxy]-phenyl}-hex-4-ynoic acid]"
5,0.001 to 0.05 µM,"CC#C[C@@H](CC(=O)O)c1ccc(OCc2ccc3c(CN4CCC(F)(F)C4)cn(CC(C)C)c3n2)cc1 [Example 231, (S)-3-{4-[3-(3,3-difluoro-pyrrolidin-1-ylmethyl)-1-isobutyl-1H-pyrrolo[2,3-b]pyridin-6-ylmethoxy]-phenyl}-hex-4-ynoic acid]"
6,0.012 µM,"CC#C[C@@H](CC(=O)O)c1ccc(OCc2ccc3c(CN4CCCC(F)(F)C4)cn(CC(C)C)c3n2)cc1 [Example 232, (S)-3-{4-[3-(3,3-difluoro-piperidin-1-ylmethyl)-1-isobutyl-1H-pyrrolo[2,3-b]pyridin-6-ylmethoxy]-phenyl}-hex-4-ynoic acid]"
